Experimental data published in the NIST ThermoML archive (doi:10.1021/je8001267).

Assay: wn = mass fraction of the nth substance listed
Details: Liquid

Cl.N [ammonium chloride (NH4Cl)] + N
mass density [kg/m3]
Details	303.15 K	313.15 K	323.15 K	333.15 K	343.15 K	353.15 K	363.15 K	373.15 K
10000 kPa, w1 = 0.1133	668.2	655.5	642.7	628.8	613.4	597.6	581.2	568.8
10000 kPa, w1 = 0.2224	729.3	716	707.1	694.9	682.5	669.2	654.5	644.4
10000 kPa, w1 = 0.3134	787.8	778.1	767.7	756.3	745.7	735.4	724.1	713.8
10000 kPa, w1 = 0.4285	833	825.9	817.4	809.5	801.9	793.4	784.2	776.9
10000 kPa, w1 = 0.5068	873.3	867.9	860	853.2	846	838	830.5	823.8
15000 kPa, w1 = 0.1133	673.3	660.5	648.4	634.7	620.3	605.7	588.8	577.2
15000 kPa, w1 = 0.2224	733.1	720.5	711.9	699.8	688.1	675.5	661.6	651.7
15000 kPa, w1 = 0.3134	791.5	783.6	772.6	761.1	751.6	741.5	731.7	721.3
15000 kPa, w1 = 0.4285	836.1	828.4	820.9	812.4	805.2	796.6	789.2	781.3
15000 kPa, w1 = 0.5068	877.7	871.7	864.7	857.9	850.6	844	837	830.3
20000 kPa, w1 = 0.1133	677.8	665.3	654.2	640.8	627.1	612.9	596.4	585.5
20000 kPa, w1 = 0.2224	736.6	725.1	715.8	704.3	692.5	680.2	667.3	657.3
20000 kPa, w1 = 0.3134	795.8	786.8	776.3	765.1	755	746.5	736.8	726.2
20000 kPa, w1 = 0.4285	838.2	831	823.4	814.4	807.6	799.5	792	784.1
20000 kPa, w1 = 0.5068	880.4	874.4	867.9	860.5	854.2	847.5	840.5	834
25000 kPa, w1 = 0.1133	682.2	670.1	658.7	646.7	633.1	619.7	603.4	593
25000 kPa, w1 = 0.2224	740.1	729.5	719.7	708.7	696.9	684.7	672.2	662.3
25000 kPa, w1 = 0.3134	798.5	789.7	779.4	768.2	758.3	750.3	741.5	730.7
25000 kPa, w1 = 0.4285	840.8	833.5	825.9	817.9	810	801.9	794.3	786.5
25000 kPa, w1 = 0.5068	883.2	876.6	870.6	863.1	857.4	850.1	843.5	837
30000 kPa, w1 = 0.1133	686.7	674.6	663.4	652.3	638.6	626.1	610.6	600.3
30000 kPa, w1 = 0.2224	743.8	734.2	723.4	712.9	701.2	689.2	677.3	667.2
30000 kPa, w1 = 0.3134	801.6	792.5	782.4	770.8	761.1	754	745.7	734.6
30000 kPa, w1 = 0.4285	842.9	835.6	827.4	820.4	812	804.2	796.4	788.7
30000 kPa, w1 = 0.5068	885.4	878.8	872.8	865.3	859.7	852.7	846	839.6
